The values that follow come from patent publication US20240336634A1, “AGONISTS OF TYRO3 AS PROTECTION AGAINST PODOCYTE INJURY IN KIDNEY GLOMERULAR DISEASE” (The Government of the United States of America as …, priority 2021, published 2024).

One series has as its system AKT. Description: AKT phosphorylation in podocytes, western blot. The class given is cell-based. To be noted: 30 minutes, screening (FIG. 2). Here is the method: (§1) FIG. 2A-C show representative data illustrating screening of TYRO3 agonists by activation of TYRO3, AKT, and NK-κB target gene expression. Referring to FIG. 2A and FIG. 2B, podocytes were treated with control vehicle (C) or different TYRO3 agonists (compounds 1-10) for 30 minutes. Western blot analysis was performed for phospho- or total Tyro3 (FIG. 2A) and AKT (FIG. 2B). Referring to FIG. 2C, podocytes were treated with vehicle control (C), TNF-α (10 ng) alone (T), or together with different TYRO3 agonists (compounds 1-10) for 2 hours, and then q-PCR analysis was performed for NF-kB target gene expression (IL-6). N=3, *p<0.01 as compared to TNF-α alone.
(§2) FIG. 3A and FIG. 3B show representative data illustrating the time course and dose effects of C-10 on the phosphorylation of TYRO3, AKT, and NK-κB target gene expression. Referring to FIG. 3A, podocytes were treated with C-10 for 30 minutes at different doses (left) or at 100 nM for different time period (right). […]
(§3) Next, their biological activity was screened by testing their effects on TYRO3, and AKT phosphorylation in podocytes. […] In addition, TYRO3 and Axl were overexpressed in podocytes (FIG. 4B), and the effects of C-10 in these cells was determined.
(In western blotting, separated proteins are transferred to a membrane and probed.)

Another series deals with T1, TYRO3 (Homo sapiens, UniProt Q06418).
T1 construct: testing their effects on TYRO3, and AKT phosphorylation in podocytes; endogenous in cells
T1 sequence (Q06418 41-890): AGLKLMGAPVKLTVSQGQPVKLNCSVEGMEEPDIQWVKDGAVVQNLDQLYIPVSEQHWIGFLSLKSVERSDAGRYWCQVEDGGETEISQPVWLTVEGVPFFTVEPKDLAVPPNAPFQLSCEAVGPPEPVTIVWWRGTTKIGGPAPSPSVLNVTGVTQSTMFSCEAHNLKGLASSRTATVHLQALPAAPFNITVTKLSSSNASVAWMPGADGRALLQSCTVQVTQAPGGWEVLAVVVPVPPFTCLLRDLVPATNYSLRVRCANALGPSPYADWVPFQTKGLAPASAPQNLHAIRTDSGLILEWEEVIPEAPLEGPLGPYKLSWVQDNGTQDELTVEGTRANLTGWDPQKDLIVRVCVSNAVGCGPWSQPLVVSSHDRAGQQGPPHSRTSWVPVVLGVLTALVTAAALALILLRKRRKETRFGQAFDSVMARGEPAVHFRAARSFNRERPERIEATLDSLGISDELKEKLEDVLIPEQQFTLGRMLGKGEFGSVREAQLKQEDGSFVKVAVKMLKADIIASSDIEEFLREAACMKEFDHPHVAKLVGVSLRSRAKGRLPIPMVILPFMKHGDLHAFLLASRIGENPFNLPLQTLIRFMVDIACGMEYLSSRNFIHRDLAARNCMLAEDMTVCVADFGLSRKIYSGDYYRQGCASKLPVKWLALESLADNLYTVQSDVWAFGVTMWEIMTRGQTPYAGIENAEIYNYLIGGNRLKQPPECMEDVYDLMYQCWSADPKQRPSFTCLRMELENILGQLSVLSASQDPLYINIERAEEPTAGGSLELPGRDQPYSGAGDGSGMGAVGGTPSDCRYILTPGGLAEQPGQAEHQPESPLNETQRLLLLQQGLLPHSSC
Description: TYRO3 phosphorylation in podocytes, western blot. The format is cell-based. To be noted: for TYRO3 phosphorylation: podocytes, 30 minutes. Here is the method: as §1
FIG. 3A and FIG. 3B show representative data illustrating the time course and dose effects of C-10 on the phosphorylation of TYRO3, AKT, and NK-κB target gene expression. Referring to FIG. 3A, podocytes were treated with C-10 for 30 minutes at different doses (left) or at 100 nM for different time period (right). Referring to FIG. 3B, podocytes were treated with vehicle control TNF-α (10 ng) alone or together with different concentrations of C-10 for 2 hours, and then q-PCR analysis was performed for NF-kB target gene expression (IL-6 and CCL2). N=3, *p<0.01 and **p<0.001 as compared to TNF-α alone.
(§4) Referring to FIG. 4B, HEK293T cells were used to confirm the overexpression of Tyro3 and Axl (C: control; OV:overexpression). Referring to FIG. 4C, cells from above transfection were stimulated with C-10 at 100 nM for 30 minutes. Western blot analysis was performed for phospho- and total AKT and GAPDH was used as a control of protein loading. The representative blots of three independent experiments are shown.
(§5) Next, their biological activity was screened by testing their effects on TYRO3, and AKT phosphorylation in podocytes. […] To test the specificity, podocytes were treated with different doses of C-10 for 30 minutes, and then western blot analysis was performed with anti-phospho-Tyro3 antibody, which also recognizes phosphorylation of Mer and Axl. Since three TAM receptors have different molecular weights, they can be distinguished in the SDS gel. […] In addition, TYRO3 and Axl were overexpressed in […] (FIG. 4B), and the effects of C-10 in these cells was determined.

Series [1] concerns NF-κB target gene expression (IL-6). As to the kind of experiment: NF-κB target gene expression in TNF-α treated podocytes, q-PCR. The format is cell-based. To be noted: TNF-α (10 ng), 2 hours, IL-6 q-PCR. As to the method: as §1, §2, §3
The subject of another series is diabetic mice (db/db). As to the kind of experiment: Albuminuria and glomerular injury in diabetic db/db mice. The format is in vivo. To be noted: 2.5 mg/kg from age 10 weeks, 8 weeks. Here is the method: FIG. 6A-C show representative data illustrating that treatment with C-10 improves albuminuria and glomerular injury in diabetic mice. Db/db mice were treated with C-10 at 2.5 mg/kg at age of 10 week, the mice were sacrificed after 8 weeks of treatment.
The effect of C-10 on albuminuria and glomerular injury in diabetic mice was also evaluated. 10 week old db/db mice were treated with C-10 at 2.5 mg/kg. Mice were sacrificed at week 8. As shown in FIGS. 6A-C, administration of C-10 improved both albuminuria and glomerular injury relative to control.

The target in another series is T2, Axl (Homo sapiens, UniProt P30530).
T2 construct: endogenous in cells; host or cells: human podocytes
T2 sequence (P30530 26-894): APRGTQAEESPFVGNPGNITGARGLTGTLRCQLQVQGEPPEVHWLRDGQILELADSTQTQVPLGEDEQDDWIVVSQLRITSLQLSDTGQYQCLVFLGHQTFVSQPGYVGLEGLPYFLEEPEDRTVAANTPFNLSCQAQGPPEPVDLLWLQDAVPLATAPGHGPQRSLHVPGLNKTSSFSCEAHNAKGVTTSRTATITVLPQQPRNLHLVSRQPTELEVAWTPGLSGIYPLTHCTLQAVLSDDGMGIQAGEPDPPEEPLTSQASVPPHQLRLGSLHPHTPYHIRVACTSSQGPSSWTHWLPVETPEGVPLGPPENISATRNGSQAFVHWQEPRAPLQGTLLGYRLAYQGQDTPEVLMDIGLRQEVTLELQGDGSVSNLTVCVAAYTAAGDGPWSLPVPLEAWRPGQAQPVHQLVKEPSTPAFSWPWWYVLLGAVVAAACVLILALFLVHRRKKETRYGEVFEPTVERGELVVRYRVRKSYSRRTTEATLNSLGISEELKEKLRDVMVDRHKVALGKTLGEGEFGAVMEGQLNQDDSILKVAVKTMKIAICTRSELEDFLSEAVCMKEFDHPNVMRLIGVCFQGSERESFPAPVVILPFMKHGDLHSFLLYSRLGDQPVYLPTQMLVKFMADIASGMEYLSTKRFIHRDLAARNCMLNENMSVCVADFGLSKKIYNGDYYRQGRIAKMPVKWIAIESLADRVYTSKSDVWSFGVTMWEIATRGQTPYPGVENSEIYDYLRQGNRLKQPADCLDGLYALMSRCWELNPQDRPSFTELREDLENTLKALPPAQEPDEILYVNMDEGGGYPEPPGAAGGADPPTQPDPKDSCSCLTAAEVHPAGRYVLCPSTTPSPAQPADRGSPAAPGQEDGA
Description: Axl phosphorylation in podocytes, western blot with anti-phospho-TAM receptor antibody. The format is cell-based. To be noted: different doses, 30 minutes (FIG. 4A). Here is the method:
as §4, §5

In a further series the target is T3, Mer (Homo sapiens, UniProt Q12866).
T3 construct: endogenous in cells; host or cells: human podocytes
T3 sequence (Q12866 21-999): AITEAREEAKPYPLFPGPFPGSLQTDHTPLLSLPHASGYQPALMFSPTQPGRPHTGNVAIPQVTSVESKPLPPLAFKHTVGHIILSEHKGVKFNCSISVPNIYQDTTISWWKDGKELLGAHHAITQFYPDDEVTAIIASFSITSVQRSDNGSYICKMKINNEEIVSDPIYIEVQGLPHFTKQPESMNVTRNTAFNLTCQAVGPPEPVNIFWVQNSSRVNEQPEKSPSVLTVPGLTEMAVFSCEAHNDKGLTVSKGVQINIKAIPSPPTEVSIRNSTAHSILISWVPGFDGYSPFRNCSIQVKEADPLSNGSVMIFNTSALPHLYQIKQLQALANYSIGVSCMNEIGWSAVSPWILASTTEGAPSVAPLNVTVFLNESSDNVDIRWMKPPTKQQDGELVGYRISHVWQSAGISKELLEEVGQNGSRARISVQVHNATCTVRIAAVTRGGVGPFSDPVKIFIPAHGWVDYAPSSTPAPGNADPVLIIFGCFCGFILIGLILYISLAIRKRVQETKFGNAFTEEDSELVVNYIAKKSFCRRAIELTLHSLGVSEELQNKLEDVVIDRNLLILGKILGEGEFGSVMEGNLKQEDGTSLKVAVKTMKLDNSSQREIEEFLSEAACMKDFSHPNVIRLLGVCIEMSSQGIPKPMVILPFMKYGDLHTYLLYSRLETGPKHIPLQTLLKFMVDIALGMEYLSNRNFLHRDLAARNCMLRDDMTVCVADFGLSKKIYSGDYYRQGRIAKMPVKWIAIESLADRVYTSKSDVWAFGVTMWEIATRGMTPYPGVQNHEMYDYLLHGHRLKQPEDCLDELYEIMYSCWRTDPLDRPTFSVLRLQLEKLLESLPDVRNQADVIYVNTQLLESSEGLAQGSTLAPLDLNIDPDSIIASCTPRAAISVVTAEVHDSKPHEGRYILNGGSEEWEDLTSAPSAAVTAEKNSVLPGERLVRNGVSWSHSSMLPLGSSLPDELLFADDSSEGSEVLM
Description: Mer phosphorylation in podocytes, western blot with anti-phospho-TAM receptor antibody. To be noted: different doses, 30 minutes (FIG. 4A). The class given is cell-based. As to the method: as §4, §5

The test system of series [2] is mice with Adriamycin-induced nephropathy (ADRN). As to the kind of experiment: Adriamycin-induced nephropathy (ADRN) in mice. The format is in vivo. Here is the method: FIG. 5A-C show representative data illustrating that C-10 treatment attenuates adriamycin-induced nephropathy (ADRN) in mice. 10-week old male Balb/c mice were injected with adriamycin (8 mg/kg) and treated with C-10 at 20 mg/kg from day 3 post-injection. All mice were sacrificed at day 28 post-injection.
The effect of C-10 was determined in vivo in mice with Adriamycin-induced nephropathy (ADRN). ADRN was induced in the Balb/c mice by injection of adriamycin at a dose of 8 mg/kg at the age of 10 weeks. The mice were fed with either C-10 at a dose of 20 mg/kg body weight or vehicle by daily gavage started on day 3 after they received an injection of Adriamycin, and ending in 4 weeks when the mice were sacrificed.

The test system of series [3] is TYRO3 overexpressing cells. As to the kind of experiment: AKT phosphorylation in TYRO3 overexpressing cells. The format is cell-based. To be noted: 100 nM, 30 minutes (FIG. 4C). As to the method: as §4, §5
Setting [4] is: ADRN Balb/c mice, 20 mg/kg daily gavage from day 3, 4 weeks.

In the case of `COc1cc(-c2nc(O)c(C)s2)ccc1Br` [C-8, 2-(4-Bromo-3-Methoxyphenyl)-5-Methylthiazol-4-ol], in the series with AKT, the AKT phosphorylation result is given as “induced significantly”. Further, on TYRO3 (screening (FIG. 2A)), the TYRO3 phosphorylation entry is reported as “induced significantly”. In series [1], the “NF-κB target gene expression” value is “suppressed”.

`Cc1sc(-c2ccc(B(O)O)s2)nc1O` [C-10, (5-(4-Hydroxy-5-Methylthiazol-2-yl)Thiophen-2-yl)Boronic Acid]: the albuminuria entry in the series with diabetic mice (db/db) is “improved”; in series [2] (setting [4]), “significantly reduced”. Also, the glomerular injury entry is “improved” with diabetic mice (db/db) and “significantly reduced” in series [2] (setting [4]). In addition, on Axl, the “phosphorylation of Axl” value is “did not affect”. The “phosphorylation of Mer” value at Mer is “slightly reduced”. Besides, the “toxicity during the treatment period” value in series [2] (ADRN Balb/c mice, 20 mg/kg daily gavage) is recorded as “No obvious toxicity”. Further, the “adriamycin-induced nephropathy (ADRN)” value in series [2] (Balb/c mice, 20 mg/kg from day 3, sacrificed day 28) is “attenuates”. Also, the “AKT phosphorylation in TYRO3 overexpressing cells” value in series [3] is on record as “induced”. The AKT phosphorylation entry in the series with AKT is given as “induced significantly”. Moreover, the “specificity as agonist for TYRO3 among TAM receptors” value on TYRO3 (from phosphorylation of Tyro3, Axl and Mer) is “quite specific agonist for TYRO3”. For the same compound, the TYRO3 phosphorylation result on TYRO3 (screening (FIG. 2A)) was “induced significantly”; on TYRO3 (different doses, anti-phospho-Tyro3 antibody (FIG. 4A)) it was “induced significantly”. On TYRO3 (screening in podocytes), the “effect as TYRO3 agonist compared between hits” value is “appears better than C-8”. The “NF-κB target gene expression” value in series [1] is given as “suppressed”.
